Measured values taken from patent US20240150377A1, “MODULATORS OF CYSTIC FIBROSIS TRANSMEMBRANE CONDUCTANCE REGULATOR” (VERTEX PHARMACEUTICALS INCORPORATED, priority 2020, published 2024).
Read-outs that look alike come from different tables or passages of the source. Values belong to the compound of their own block, whether it stands above or below them.

Molecular target: T1, CFTR (Homo sapiens, UniProt P13569, DEL508-508)
T1 construct: endogenous in cells; host or cells: primary human bronchial epithelial cells from CF subjects (F508del/MF-HBE), differentiated at air-liquid interface
T1 sequence (P13569 with tags, fused parts or gaps DEL508-508): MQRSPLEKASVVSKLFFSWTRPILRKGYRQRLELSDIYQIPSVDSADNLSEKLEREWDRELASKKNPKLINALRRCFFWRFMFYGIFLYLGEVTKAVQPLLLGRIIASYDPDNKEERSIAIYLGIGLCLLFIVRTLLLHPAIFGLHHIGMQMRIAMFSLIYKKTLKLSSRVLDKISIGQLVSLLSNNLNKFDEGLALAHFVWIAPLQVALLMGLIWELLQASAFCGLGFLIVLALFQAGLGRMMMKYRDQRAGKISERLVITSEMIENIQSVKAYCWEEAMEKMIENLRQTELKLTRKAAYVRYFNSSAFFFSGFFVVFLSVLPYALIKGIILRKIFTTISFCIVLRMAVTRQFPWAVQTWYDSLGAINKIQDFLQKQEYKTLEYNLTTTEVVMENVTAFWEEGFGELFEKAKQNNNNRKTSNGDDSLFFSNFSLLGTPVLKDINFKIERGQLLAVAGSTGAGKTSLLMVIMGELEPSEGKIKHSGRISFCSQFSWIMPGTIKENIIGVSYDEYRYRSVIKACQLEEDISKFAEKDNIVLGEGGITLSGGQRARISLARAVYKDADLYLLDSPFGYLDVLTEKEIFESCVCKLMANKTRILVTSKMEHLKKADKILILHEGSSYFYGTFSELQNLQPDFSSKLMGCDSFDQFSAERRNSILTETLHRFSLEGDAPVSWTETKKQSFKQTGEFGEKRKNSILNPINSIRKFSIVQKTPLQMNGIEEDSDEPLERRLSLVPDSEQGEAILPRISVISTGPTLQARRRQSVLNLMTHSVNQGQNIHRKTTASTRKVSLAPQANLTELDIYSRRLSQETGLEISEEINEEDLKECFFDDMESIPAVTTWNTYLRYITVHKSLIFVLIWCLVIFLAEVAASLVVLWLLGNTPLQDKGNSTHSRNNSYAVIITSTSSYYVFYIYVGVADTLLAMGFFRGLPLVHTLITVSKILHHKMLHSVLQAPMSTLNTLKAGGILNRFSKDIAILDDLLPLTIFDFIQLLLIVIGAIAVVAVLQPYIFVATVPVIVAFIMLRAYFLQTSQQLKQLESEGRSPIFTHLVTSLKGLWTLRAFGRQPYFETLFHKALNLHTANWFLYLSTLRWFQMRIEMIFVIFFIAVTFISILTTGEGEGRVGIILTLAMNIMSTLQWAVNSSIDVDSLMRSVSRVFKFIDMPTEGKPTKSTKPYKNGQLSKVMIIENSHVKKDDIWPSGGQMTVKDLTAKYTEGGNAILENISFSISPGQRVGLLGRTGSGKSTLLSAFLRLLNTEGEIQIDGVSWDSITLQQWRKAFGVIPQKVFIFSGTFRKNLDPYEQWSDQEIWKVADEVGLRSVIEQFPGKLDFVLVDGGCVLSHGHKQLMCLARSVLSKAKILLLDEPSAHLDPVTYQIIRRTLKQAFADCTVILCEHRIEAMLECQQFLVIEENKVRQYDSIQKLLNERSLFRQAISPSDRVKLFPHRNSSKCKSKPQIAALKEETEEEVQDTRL
Assay: HBE assay: Ussing chamber assay of CFTR-mediated short-circuit currents
Assay type: cell-based
Procedure, shortened: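 CFTR-mediated Isc (μA/cm²) equals the peak response to apical 20 μM forskolin minus the residual after a 20 μM each BPO/GlyH-101/CFTR inhibitor 172 cocktail, recorded in Ussing chambers at Vhold 0 mV, 37 °C, pH 7.4, with 30 μM apical amiloride. Cells were F508del/MF HBE cultures preincubated 18-24 h with corrector (concentration range or 10 μM) plus 1 μM ivacaftor in 20% human serum.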

[1] = Table 11, read-out: HBE Max Activity (%)
[2] = Table 10, at 10 μM, read-out: HBE activity at 10 (μM) (%)
[3] = HBE assay, read-out: HBE Max activity (%)
[4] = Table 13, read-out: HBE Max Activity (%)
[5] = Table 13, at 10 μM, read-out: HBE Activity at 10 μM (%)
[6] = HBE assay, 10 μM, read-out: HBE Activity at 10 μM (%)
[7] = Table 10, read-out: HBE Max activity (%)
[8] = Table 12, read-out: HBE Max Activity (%)
[9] = Table 12, at 10 μM, read-out: HBE Activity at 10 μM (%)

EC50 (Table 11, read-out: HBE EC50): < 1 µM
Emax [1]: > 60%
Structure (SMILES): Cc1cccc(C)c1-c1cc2nc(n1)NS(=O)(=O)c1cccc(c1)C(=O)N(Cc1nccc(N3CCC(C)(C)C3)n1)[C@H](CC(C)(C)C)CO2 [Compound 648]

activation at 10 µM [2]: 30 to 60%
Structure (SMILES): Cc1cccc(C)c1-c1cc2nc(n1)NS(=O)(=O)c1cccc(c1)C1Oc3ncc4ccccc4c3CN1[C@H](CC(C)(C)C)CO2 (some centres unmarked) [Compound 753]

EC50 (HBE assay, read-out: HBE EC50): < 1 µM
Emax [3]: > 60%
Structure (SMILES): Cc1cccc(C)c1-c1cc2nc(n1)NS(=O)(=O)c1cccc(c1)C(=O)N(Cc1cccc(N3[C@H](C)CC[C@@H]3C)n1)[C@H](CC(C)(C)C)CO2 (stereo in doubt) [Compound 1401]

EC50 (Table 13, read-out: HBE EC50): < 1 µM
Emax [4]: > 60%
Structure (SMILES): COc1cnc(CN2C(=O)c3cccc(c3)S(=O)(=O)Nc3nc(cc(-c4c(C)cccc4C)n3)OC[C@H]2CC(C)(C)C)c(Cl)c1 [Compound 1067]

activation at 10 µM [2]: > 60%
Structure (SMILES): Cc1cccc(C)c1-c1cc2nc(n1)NS(=O)(=O)c1cccc(c1)C1Oc3ccc4cccnc4c3CN1[C@H](CC(C)(C)C)CO2 (some centres unmarked) [Compound 751]

EC50 (Table 11, read-out: HBE EC50): 1 to 3 µM
Emax [1]: > 60%
Structure (SMILES): Cc1cccc(C)c1-c1cc2nc(n1)NS(=O)(=O)c1cccc(c1)C(=O)N(Cc1ncc(N3CC4(CC4)C3)cn1)[C@H](CC(C)(C)C)CO2 [Compound 622]

activation at 10 µM [6]: > 60%
Structure (SMILES): COC[C@@H]1COCCN1c1cccc(CN2C(=O)c3cccc(c3)S(=O)(=O)Nc3nc(cc(-c4c(C)cccc4C)n3)OC[C@H]2CC(C)(C)C)n1 [Compound 1435]

EC50 (Table 10, read-out: HBE EC50): < 1 µM
Emax [7]: > 60%
Structure (SMILES): Cc1cccc(C)c1-c1cc2nc(n1)NS(=O)(=O)c1cc(n(C)n1)C(=O)N(Cc1ccc(N3CCOCC3)cc1)[C@H](CC(C)(C)C)CO2 [Compound 906]

EC50 (HBE assay, read-out: HBE EC50): < 1 µM
Emax [3]: > 60%
Structure (SMILES): Cc1cccc(C)c1-c1cc2nc(n1)NS(=O)(=O)c1cccc(c1)C(=O)N(Cc1cncc(NC3CCCC34CCC4)n1)[C@H](CC(C)(C)C)CO2 (some centres unmarked) [Compound 1348]

EC50 (HBE assay, read-out: HBE EC50): < 1 µM
Emax [3]: > 60%
Structure (SMILES): Cc1cccc(C)c1-c1cc2nc(n1)NS(=O)(=O)c1cccc(c1)C(=O)N(Cc1ncc(OC3CCCC3)cn1)[C@H](CC1CC1)CO2 [Compound 1463]

EC50 (Table 11, read-out: HBE EC50): < 1 µM
Emax [1]: 30 to 60%
Structure (SMILES): Cc1cccc(C)c1-c1cc2nc(n1)NS(=O)(=O)c1cccc(c1)C(=O)N(Cc1cccc(N3[C@H](C)CC[C@@H]3C)n1)[C@H](CC(C)(C)C)CO2 [Compound 709]

EC50 (HBE assay, read-out: HBE EC50): < 1 µM
Emax [3]: > 60%
Structure (SMILES): COC(C)(C)CNc1cncc(CN2C(=O)c3cccc(c3)S(=O)(=O)Nc3nc(cc(-c4c(C)cccc4C)n3)OC[C@H]2CC(C)(C)C)n1 [Compound 1483]

EC50 (Table 13, read-out: HBE EC50): < 1 µM
Emax [4]: > 60%
Structure (SMILES): Cc1cccc(C)c1-c1cc2nc(n1)NS(=O)(=O)c1cccc(c1)C(=O)N(Cc1ncc(OC3CC3)cn1)[C@H](CC(C)(C)C)CO2 [Compound 1129]

EC50 (Table 12, read-out: HBE EC50): < 1 µM
Emax [8]: > 60%
Structure (SMILES): COC1CN(c2cccc(CN3C(=O)c4cccc(c4)S(=O)(=O)Nc4nc(cc(-c5c(C)cccc5C)n4)OC[C@H]3CC(C)(C)C)n2)C(C)(C)C1 (some centres unmarked) [Compound 876]

activation at 10 µM [9]: > 600%
Structure (SMILES): Cc1cccc(C)c1-c1cc2nc(n1)NS(=O)(=O)c1cccc(c1)C(=O)N(CC1CC(C)(C)C1)[C@H](CC(C)(C)C)CO2 [Compound 1007]

activation at 10 µM [9]: > 600%
Structure (SMILES): Cc1cccc(C)c1-c1cc2nc(n1)NS(=O)(=O)c1cccc(c1)C(=O)N(Cc1nc(C3CC3)cs1)[C@H](CC(C)(C)C)CO2 [Compound 701]

EC50 (Table 11, read-out: HBE EC50): < 1 µM
Emax [1]: > 60%
Structure (SMILES): Cc1cccc(C)c1-c1cc2nc(n1)NS(=O)(=O)c1cccc(c1)C(=O)N(Cc1nccc(N(C)C)n1)[C@H](CC(C)(C)C)CO2 [Compound 649]

EC50 (Table 11, read-out: HBE EC50): < 1 µM
Emax [1]: > 60%
Structure (SMILES): COCCN(C)c1ccnc(CN2C(=O)c3cccc(c3)S(=O)(=O)Nc3nc(cc(-c4c(C)cccc4C)n3)OC[C@H]2CC(C)(C)C)n1 [Compound 657]

activation at 10 µM [6]: > 60%
Structure (SMILES): Cc1cccc(C)c1-c1cc2nc(n1)NS(=O)(=O)c1cccc(c1)C(=O)N(Cc1cnc(N(C)CCOC(C)C)o1)[C@H](CC(C)(C)C)CO2 [Compound 1460]

EC50 (HBE assay, read-out: HBE EC50): < 1 µM
Emax [3]: > 60%
Structure (SMILES): CC[C@@H](C)[C@@H]1COc2cc(-c3c(C)cccc3C)nc(n2)NS(=O)(=O)c2cccc(c2)C(=O)N1Cc1ncc(OC2CCC2)cn1 [Compound 1474]

Further lines, the compound ahead of its results:

Structure (SMILES): Cc1cccc(C)c1-c1cc2nc(n1)NS(=O)(=O)c1cccc(c1)C(=O)N(Cc1cccc(N3CCCC3C(N)=O)n1)[C@H](CC(C)(C)C)CO2 (some centres unmarked) [Compound 539]
activation at 10 µM [5]: > 600%

Structure (SMILES): Cc1cccc(C)c1-c1cc2nc(n1)NS(=O)(=O)c1cccc(c1)C(=O)N(Cc1nccc(N(C)C3CCCC3)n1)[C@H](CC(C)(C)C)CO2 [Compound 617]
EC50 (Table 11, read-out: HBE EC50): 1 to 3 µM
Emax [1]: > 60%

Structure (SMILES): Cc1cccc(C)c1-c1cc2nc(n1)NS(=O)(=O)c1cccc(c1)C(=O)N(CC1CCC(C)(C)CO1)[C@H](CC(C)(C)C)CO2 (single isomer, unassigned) [Compound 22]
EC50 (Table 11, read-out: HBE EC50): < 1 µM
Emax [1]: > 60%

Structure (SMILES): Cc1cccc(C)c1-c1cc2nc(n1)NS(=O)(=O)c1cccc(c1)C(=O)N(Cc1ccc(-c3c[nH]nc3C3CC3)cn1)[C@H](CC(C)(C)C)CO2 [Compound 297]
EC50 (Table 10, read-out: HBE EC50): < 1 µM
Emax [7]: > 60%

Structure (SMILES): Cc1cccc(C)c1-c1cc2nc(n1)NS(=O)(=O)c1cccc(c1)C(=O)N(Cc1ccc(C3CC4(CCC4)C3)cn1)[C@H](CC(C)(C)C)CO2 [Compound 163]
EC50 (Table 13, read-out: HBE EC50): 1 to 3 µM
Emax [4]: > 60%

Structure (SMILES): Cc1cccc(C)c1-c1cc2nc(n1)NS(=O)(=O)c1cccc(c1)C(=O)N(Cc1ncc(N3CC4CC(C4)C3)cn1)[C@H](CC(C)(C)C)CO2 [Compound 613]
EC50 (HBE EC50 (μM), Table 11): < 1 µM
Emax [1]: > 60%

Structure (SMILES): COC(=O)C1CCN(c2ccc(CN3C(=O)c4cccc(c4)S(=O)(=O)Nc4nc(cc(-c5c(C)cccc5C)n4)OC[C@H]3CC(C)(C)C)nc2)CC1 [Compound 255]
activation at 10 µM [5]: > 600%

Structure (SMILES): Cc1cccc(C)c1-c1cc2nc(n1)NS(=O)(=O)c1cccc(c1)C(=O)N(CC1OCCC1(C)C)[C@H](CC(C)(C)C)CO2 (single isomer, unassigned) [Compound 26]
activation at 10 µM (Table 11, at 10 μM, read-out: HBE Activity at 10 μM (%)): > 60%

Structure (SMILES): Cc1cccc(C)c1-c1cc2nc(n1)NS(=O)(=O)c1cccc(c1)C(=O)N(Cc1cccc(N(CCO)C(C)C)n1)[C@H](CC(C)(C)C)CO2 [Compound 530]
EC50 (Table 13, read-out: HBE EC50): < 1 µM
Emax [4]: > 60%

Structure (SMILES): Cc1cccc(C)c1-c1cc2nc(n1)NS(=O)(=O)c1cccc(c1)C(=O)N(Cc1ccnc(OC(C)C)n1)[C@H](CC(C)(C)C)CO2 [Compound 595]
EC50 (Table 12, read-out: HBE EC50): < 1 µM
Emax [8]: > 60%

Structure (SMILES): Cc1cccc(C)c1-c1cc2nc(n1)NS(=O)(=O)c1cccc(c1)C(=O)N(Cc1nc(N(C)C(C)C)cc(C(F)(F)F)n1)[C@H](CC(C)(C)C)CO2 [Compound 326]
activation at 10 µM [9]: > 600%

Structure (SMILES): Cc1cccc(C)c1-c1cc2nc(n1)NS(=O)(=O)c1cccc(c1)C(=O)N(Cc1cccc(-n3ccc(C(C)(C)C)n3)n1)[C@H](CC(C)(C)C)CO2 [Compound 470]
Emax [7]: > 60%

Structure (SMILES): Cc1cccc(C)c1-c1cc2nc(n1)NS(=O)(=O)c1cccc(c1)C(=O)N(CC(=O)NCc1ccccn1)[C@H](CC(C)(C)C)CO2 [Compound 220]
activation at 10 µM [5]: > 600%

Structure (SMILES): Cc1cccnc1CNC(=O)CN1C(=O)c2cccc(c2)S(=O)(=O)Nc2nc(cc(-c3c(C)cccc3C)n2)OC[C@H]1CC(C)(C)C [Compound 215]
activation at 10 µM [9]: > 600%

Structure (SMILES): Cc1cccc(C)c1-c1cc2nc(n1)NS(=O)(=O)c1cccc(c1)C(=O)N(Cc1ccc(OC(C)C)nn1)[C@H](CC(C)(C)C)CO2 [Compound 234]
EC50 (Table 13, read-out: HBE EC50): < 1 µM
Emax [4]: > 60%

Structure (SMILES): Cc1cccc(C)c1-c1cc2nc(n1)NS(=O)(=O)c1cccc(c1)C(=O)N(Cc1ccc(C3CCCCC3)cc1)[C@H](CC(C)(C)C)CO2 [Compound 495]
EC50 (Table 10, read-out: HBE EC50): 1 to 3 µM
Emax [7]: > 60%
